NC(=O)Nc1ccccc1
solubility (mole fraction)
Conditions | 283.15 K | 288.15 K | 293.15 K | 298.15 K | 303.15 K | 308.15 K | 313.15 K | 318.15 K | 323.15 K
in 1,2-dichloroethane | 0.000433 | 0.000528 | 0.000706 | 0.000952 | 0.0012 | 0.00151 | 0.002 | 0.00257 | 0.00315
in 1,4-dioxane | – | 0.0128 | 0.0152 | 0.0183 | 0.022 | 0.0276 | 0.0348 | 0.0433 | 0.0525
in DMF | 0.205 | 0.212 | 0.22 | 0.229 | 0.24 | 0.253 | 0.266 | 0.282 | 0.3
in DMSO | – | – | 0.192 | 0.199 | 0.207 | 0.217 | 0.229 | 0.244 | 0.262
in NMP | 0.0457 | 0.0517 | 0.0596 | 0.0686 | 0.0787 | 0.0898 | 0.101 | 0.115 | 0.13
in acetonitrile | 0.00622 | 0.00731 | 0.00867 | 0.0106 | 0.0135 | 0.0177 | 0.0221 | 0.0264 | 0.0318
in ethanol | 0.0236 | 0.0272 | 0.0322 | 0.0383 | 0.0459 | 0.0525 | 0.0612 | 0.072 | 0.082
in ethyl acetate | 0.0147 | 0.0176 | 0.0209 | 0.0257 | 0.0309 | 0.0384 | 0.0461 | 0.0549 | 0.0643
in ethylene glycol | 0.0338 | 0.039 | 0.0448 | 0.0517 | 0.0595 | 0.0681 | 0.0774 | 0.0882 | 0.101
in isopropanol | 0.00903 | 0.0108 | 0.0132 | 0.0164 | 0.0198 | 0.0253 | 0.0321 | 0.0392 | 0.0472
in methanol | 0.0265 | 0.0305 | 0.036 | 0.0421 | 0.0495 | 0.0578 | 0.0672 | 0.0774 | 0.0888
in n-propanol | 0.02 | 0.0235 | 0.0281 | 0.0334 | 0.0394 | 0.0458 | 0.0539 | 0.0629 | 0.0723
in water | 0.000409 | 0.000513 | 0.000649 | 0.000828 | 0.00102 | 0.00124 | 0.0015 | 0.0018 | 0.00208

Reference: BigSolDB 2.1
